Experimental data taken from patent publication EP3839043A1, “SCREENING METHODS FOR COMPOUNDS MODULATING POLYAMINE TRANSPORT” (Katholieke Universiteit Leuven, priority 2019, dated 2021).

Columns and labels:
SH-SY5Y cells [1] = conditions: KO and KO/D508N cells; SPM 10 µM, 4 h
Procedure: BODIPY-SPM localization and lysosomal rupture analysis - For all immunofluorescent stainings SH-SY5Y cell lines were seeded in 12-well plates (0.25 X 10^5 cells per well on coverslips) and the next day, the cells were incubated with the indicated compounds for 4 h at 37°C. For BODIPY-SPM analysis, cells were pulsed with 5 µM SPM for 15 min, washed and chased in fresh media for a further 1 h and 45 min at 37°C. Following treatments, the cells were washed twice in PBS, fixed in 4% paraformaldehyde for 30 min (37°C), washed in PBS and stored at 4°C. For immunofluorescence staining, the cells were washed in PBS containing 0.5% Tween 20 (PBS-T), permeabilized in PBS containing 0.1% Triton X-100 (30 min) and blocked first in 0.1 M glycine and then in PBS-T containing 1% fetal calf serum and 10% BSA. Gal-3-, LAMP1- and cathepsin B-specific antibodies were used at a dilution of 1:100-200 (in PBS-T containing 1% BSA) overnight at 4°C. Subsequently, the samples were washed and incubated with Alexa Fluor™ secondary antibody (1:1,000, 30 min). To assess FITC-dextran release, cells were loaded with 50 µg/ml FITC-dextran for 72 h, cells were then washed and placed in fresh media for 1 h prior to SPM (10 µM) addition. To visualize the nucleus, all samples were stained with DAPI. […]

Purified ATP13A2 = target: T1, Purified ATP13A2 (Homo sapiens, UniProt Q9NQ11); conditions: 1 mM SPM
T1 sequence (Q9NQ11 1-1175 isoform Q9NQ11-3): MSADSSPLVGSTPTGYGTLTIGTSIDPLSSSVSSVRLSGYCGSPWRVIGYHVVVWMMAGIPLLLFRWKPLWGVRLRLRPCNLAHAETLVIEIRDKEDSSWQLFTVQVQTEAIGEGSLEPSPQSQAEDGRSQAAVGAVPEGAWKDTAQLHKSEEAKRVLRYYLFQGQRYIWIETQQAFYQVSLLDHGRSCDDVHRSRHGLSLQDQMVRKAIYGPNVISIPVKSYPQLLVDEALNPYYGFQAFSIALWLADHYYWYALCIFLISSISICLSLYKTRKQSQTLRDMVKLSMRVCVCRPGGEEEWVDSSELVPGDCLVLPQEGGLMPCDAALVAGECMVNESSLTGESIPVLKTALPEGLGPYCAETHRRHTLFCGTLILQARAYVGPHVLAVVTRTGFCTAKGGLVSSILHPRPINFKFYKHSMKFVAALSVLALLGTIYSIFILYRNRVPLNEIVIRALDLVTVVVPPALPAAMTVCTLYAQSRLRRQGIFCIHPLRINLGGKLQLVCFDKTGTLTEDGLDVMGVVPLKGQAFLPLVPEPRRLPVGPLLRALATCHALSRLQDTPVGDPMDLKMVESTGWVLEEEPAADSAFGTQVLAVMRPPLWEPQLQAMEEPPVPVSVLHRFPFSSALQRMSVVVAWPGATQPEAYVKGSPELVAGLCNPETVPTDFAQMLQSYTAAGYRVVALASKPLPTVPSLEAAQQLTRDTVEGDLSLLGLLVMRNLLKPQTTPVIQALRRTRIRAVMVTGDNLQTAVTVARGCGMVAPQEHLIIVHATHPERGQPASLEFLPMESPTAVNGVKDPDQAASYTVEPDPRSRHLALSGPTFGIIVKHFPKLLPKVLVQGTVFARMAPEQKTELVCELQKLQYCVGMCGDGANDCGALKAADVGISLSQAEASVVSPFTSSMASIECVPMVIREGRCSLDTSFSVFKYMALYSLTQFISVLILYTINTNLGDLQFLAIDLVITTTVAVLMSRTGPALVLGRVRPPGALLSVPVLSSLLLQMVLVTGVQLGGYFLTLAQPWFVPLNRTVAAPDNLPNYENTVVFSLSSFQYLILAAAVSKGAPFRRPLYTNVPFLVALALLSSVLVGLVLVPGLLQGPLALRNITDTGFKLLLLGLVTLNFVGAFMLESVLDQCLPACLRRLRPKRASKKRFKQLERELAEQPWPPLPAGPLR
Procedure: (§1) PLoS One 13, e0193228, (2018)].
(§2) In case of purified ATP13A2, 125 µM PA and 125 µM PI(3,5)P2 were included in the reaction mixture. To determine the sensitivity of the ATP13A2 phosphoenzyme to ATP or a combination of ATP and SPM, 30 s after adding ^32P-ATP, samples were incubated with non-radioactive ATP (5 mM in experiments using microsomes, 1 mM when purified ATP13A2 was used) and SPM (1 mM) before the reaction was stopped at indicated time points. The incorporation of ^32P was visualized following SDS-PAGE under acidic conditions and subsequently detected by autoradiography (microsomes) or liquid scintillation counting (purified ATP13A2) (Liquid Scintillation Analyzer TRI-CARB 2900TR).

ATP13A2 = ATP13A2 (Homo sapiens, UniProt Q9NQ11)
Procedure: as §1, §2

SH-SY5Y cells [2] = system: SH-SY5Y cells
Procedure: PI exclusion assay - Cells were seeded in 12-well plates (1.0 X 10^5 cells per well) and the next day, the cells were treated with increasing doses of SPM, alone or in combination with the CTSB inhibitor CA-074 (25 µM, 1 h pre-incubation) or acidic nanoparticles (180 ng/ml, 1 h pre-incubation), and incubated for 24 h at 37°C. Thereafter, the cells were harvested following trypsinization and a brief centrifugation (300 x g; 5 min), washed with PBS and stained with 1 µg/ml PI (in PBS containing 1% BSA). An Attune Nxt (Thermo Fischer Scientific) flow cytometer was used to determine the proportion of PI-positive cells (10,000 events per treatment).

**Q.** What does the source list for `NCCCNCCCCNCCCN` [Spermine, spermine]?
**A.** endogenous Gal-3 punctae (SH-SY5Y cells [1]): increased both the number and size; dephosphorylation of purified WT after chase with cold ATP (Purified ATP13A2): clearly stimulates dephosphorylation; ATP13A2 phospho-enzyme levels (ATP13A2; WT-OE microsomes 20 µg, 60 s with [γ-32P] ATP): dose-dependent reduction; dephosphorylation rate following a chase with non-radioactive ATP (ATP13A2; WT-OE microsomes, 1 mM SPM): significantly higher dephosphorylation rate; cell death (SH-SY5Y cells [2]): increase in cell death
